Series [1] in a line: Solubility of iron chloride hexahydrate and iron complexes (visual / assayed). It is filed as physicochemical. The procedure:
Due to the high number of test samples (6 complexes plus the starting material, iron chloride hexahydrate) a visual solubility screen was used to screen the solubility in a range of solvents. […] Quantitative determination was performed by either incubating the complex in excess in the solvent using a shaking 37° C. water bath for 48 h or sonicating it for 2 hours at 40° C. or leaving overnight on a 50° C. hot plate. Once incubation period was completed, the exact solubility in a particular solvent was assayed (using the iron assay) after centrifugation (i.e. assay iron content in the supernatant using the Ferrozine® assay).

Series [2] in a line: Franz cell porcine skin permeation and deposition of iron from solutions. As to conditions: for permeation and deposition in the skin: solutions; for total delivered dose: PG solution. Format: in vitro ADME. The procedure: The permeation of the iron complexes from the formulations into and across porcine skin mounted on Franz cells with a receiver fluid was tested (FIG. 4). This was based on the principles of the FDA, SUPAC-SS guidelines. The developed colorimetric assay method was used for iron quantification.
(§1) On the day of the experiment, the skin was defrosted. For the full thickness studies, the subcutaneous fat removed (2.5 mm thick) and for the dermatomes skin studies the tissued was dermatomed to a 1 mm thickness. The tissue was cut into the appropriate size sections (2.19±0.21 cm^2) and mounted between donor and receiver compartments of Franz diffusion cells with the SC facing the donor compartment. Each cell was sealed using parafilm and 12 mm magnetic stir bars were placed into the receiver compartment. The receiver compartment was filled with the desired receiver solution and the Franz cells were placed in a stirring water bath at 37° C. Cells were allowed to equilibrate for 30 min after which the receiver fluid using was mixed using a syringe and the “zero hour” sample was withdrawn from the arm and compensate with the same volume of fresh pre-warmed solution. Following zero-hour sampling, the donor solution was placed in the donor compartment and covered with parafilm. Samples were withdrawn and compensated with fresh receiver solution at set time intervals for a 24 h duration. The iron in each sample was quantified using the method specified in Section 2.2.2.1. […] There was no matrix interference noted in the assay. […] For iron maltol a 80:20 PG:water receiver was used along with a complementary calibration for iron assay (iron chloride in PG:water). The donor solution for the iron maltol made at pH 1.6 was 200 μL of 100 mg/mL complex in Transcutul®, for iron maltol made at pH 4 the donor solution was 200 μL of 23 mg/mL complex in PG and for iron maltol made at pH 4 the donor solution was 150 μL of 16 mg/mL complex in 7.5:1.5:1:1 water:PG:dimethicone:ethanol.
Once the permeation studies were completed the donor solutions were collected into bottles containing the extraction solution. This was followed by skin surface cleaning using four cotton buds, the first two were wetted by the extraction fluid and the second two were used dry. Then two tape striping procedures were performed using 2 tapes to remove any iron on the skin surface with the tape being added to the donor solution and cotton buds in the donor recover vial. For the full skin thickness skin, the Stratum corneum, the dermal and the epidermal layers were isolated in the same way as the recovery method (Section 2.3.2.1). Extraction fluid (50:50 PBS:ethanol) was then added to the tissues, 4 mL to the Stratum corneum, and 2 mL for each of the epidermis and dermis. For the dermatomed skin the whole skin section was chopped up and placed in a 2 mL extraction fluid (ethanol).
The Stratum corneum samples were placed on vibrating plate for a minimum of 2 h to extract the iron and then vortexed prior assay. The epidermis, dermis or dermatomed samples however were incubated with the extraction fluid for 1 h after which were transferred to Eppendorf tubes, one stainless steel 5 mm bead was added and the samples were loaded into the TissuLyser II (Qiagen, Germany) for 30-15 min at 30 Hz. The samples were then centrifuged (5 min at 13,000 rpm) and supernatant assayed.

A short description of series [3]: Visual skin damage / necrosis after iron permeation study. As to conditions: after 24 h permeation study, porcine skin.
Excerpt: as §1

Series [4] in a line: Iron complex adhesive compatibility and loading screen. It is filed as physicochemical. Here is the method:
Pre-formulation studies were performed to determine the compatibility of the iron complexes with a range of transdermal patch adhesives (Table 15).
The compatibility of the complexes with the patch adhesives was assessed by mixing and visually checking the clarity of the mixture.
In the adhesives that were computable with the iron complexes the maximum drug loading of the complexes in the adhesive following solvent evaporation was determined. This was achieved by mixing the drug, adhesive and co-solvents until a clear solution was obtained at different drug:adhesive ratios and placing few drops of the mixture onto the patch backing sheet, leaving it to dry for 3-4 h, and examining the formed film on the surface of the backings for evidence of drug crystals.
Following complete drying of the solvents, the adhesive layer was covered by a release liner, compressed, and then cut using 34 mm circular manual die cutter (FIG. 23).

Series [5] is described as follows: Solubility of zinc chloride and zinc complexes (visual / HPLC). It is filed as physicochemical. The procedure:
Accurate measurement of the solubility was then repeated for some of the solvent systems by HPLC. In the HPLC solubility studies, an excess of the test agents was loaded into 2 mL of each test solvent. The solutions were left stirring overnight at 32° C. […] The drug suspensions were then centrifuged, the supernatant diluted, and each sample concentration was measured using HPLC.

The mark [6] stands for this setting: PG, 370 mg elemental iron dosed, 2 cm^2, 24 h.

Marks after values point to notes of the source that are not given here. Some results are limits rather than exact numbers.

In general, Solubility refers to how much of the substance goes into solution per volume. Read a high Solubility as much dissolved substance.

As for `Cc1occc(=O)c1[O-].Cc1occc(=O)c1[O-].Cc1occc(=O)c1[O-].[Fe+3]` [Iron maltol made at pH 1.6, iron maltol], the “Solubility of complex (visual)” value in series [1] (PEG400) and in series [1] (PG) was less than 6 mg/mg/mL throughout. In series [1] (Transcutul), this molecule displayed a Solubility of complex of 100 mg/mg/mL. In addition, the “Solubility, equivalent elemental iron” value in series [1] (Transcutul) is “to 13 mg/ mg/mL”. In addition, the “permeation and deposition in the skin” value in series [2] (24 h) was “permeated and deposited in the skin”. In series [3], the “skin damage / necrosis” value is listed as “caused skin necrosis”.

For `Cc1occc(=O)c1[O-].Cc1occc(=O)c1[O-].Cc1occc(=O)c1[O-].[Fe+3]` [Iron maltol made at pH 4, iron maltol], in series [1] (PEG400), the Solubility of complex amounted to 20 mg/mg/mL and the “Solubility, equivalent elemental iron” value is reported as “to 2.7 mg/ mg/mL”. Moreover, in series [1] (PG), the Solubility of complex was 17 ± 5 mg/mg/mL and the “Solubility, equivalent elemental iron” value is given as “to 2.3 ± 0.6 mg/mL”. The molecule also came in with a Solubility in series [1] (PG and PEG400 (conclusions)) of 18 mg/mL. Also, the “Solubility of complex (visual)” value in series [1] (Transcutul) was less than 6 mg/mL. Besides, in series [2] (24 h), the total delivered dose turned out to be 65 μg/cm^2; the “permeation and deposition in the skin” value is “permeated and deposited in the skin”. Besides, the “skin damage / necrosis” value in series [3] is on record as “without inducing skin necrosis”.

As for `CCc1occc(=O)c1[O-].CCc1occc(=O)c1[O-].CCc1occc(=O)c1[O-].[Fe+3]` [Iron ethyl maltol, iron ethyl maltol], the “Solubility of complex (visual)” value is reported as no less than 20 mg/mL Iron ethyl maltol* in series [1] (Chloroform); less than 8 mg/mL Iron ethyl maltol* in series [1] (Ethyl acetate); less than 8 mg/mL Iron ethyl maltol* in series [1] (Glycerol); less than 8 mg/mL Iron ethyl maltol* in series [1] (Hexane); less than 8 mg/mL Iron ethyl maltol* in series [1] (Liquid Paraffin); no less than 20 mg/mL Iron ethyl maltol* in series [1] (Methanol). Further, the “Solubility of complex (visual)” value in series [1] (Miglyol), in series [1] (Oleic acid), in series [1] (Transcutul) and in series [1] (Triaceten) was less than 8 mg/mL Iron ethyl maltol* each time. In series [2] (24 h), the total delivered dose amounted to 12 μg/cm^2. For the same molecule, the compatibility with adhesives result in series [4] is “only compatible with DURO-TAK 9301”. For the same molecule, in series [4] (methanol stock solution 10 mg/mL), the “(maximum) complex loading achieved in adhesive” value came out at 4%. In addition, in series [4] (methanol stock solution 18 mg/mL), the “complex loading achieved in adhesive patch” value is on record as 8.5%. Moreover, in series [3], the “skin damage / necrosis” value is listed as “did not cause any visible skin damage”.

`[Cl-].[Cl-].[Zn+2]` [Zinc Chloride, Zinc chloride, reference compound]: the “Elemental zinc solubility (visual)” value in series [5] (solvent PEG400, visual solubility (*)) is on record as ~2.7* mg/mL. Also, the “Elemental zinc solubility evaluated by HPLC” value in series [5] (solvent PG) stood at 2.7 mg/mL.

Take `O.O.O.O.O.O.[Cl-].[Cl-].[Cl-].[Fe+3]` [Iron chloride hexahydrate, reference compound]: the “Solubility, equivalent elemental iron” value in series [1] (PG) worked out at 370 mg/mL. Moreover, the Solubility in series [1] (PG, as iron chloride hexahydrate) worked out at 1400 mg/mL. Moreover, in series [2] (setting [6]), the “elemental iron permeated the skin” value was determined as 180 mg and the “elemental iron permeated, percent of dose” value turned out to be 48%. The “dose above the desired target (4.6 mg)” value in series [2] (PG, 24 h) is listed as 40 times. Moreover, in series [3], the “skin damage / necrosis” value is “necrosis of the skin”.

The values above are taken from US20260306421A1, “SYSTEMS AND METHODS FOR TRANSDERMAN PATCH DELIVERY” (VITAMAX PATCH WHOLESALER LLC, priority 2022, published 2026).
